Assay results taken from patent publication US20250197460A1, “USE OF LACTOBACILLUS PARACASEI GM-080 AND PEPTIDES THEREOF FOR ANTIMICROBIA” (GenMont Biotech Incorporation, priority 2023, published 2025).

Key:
[1] = system: Streptococcus pyogenes NZ131; experiment: Antimicrobial peptide co-culture with Streptococcus pyogenes (OD); type: cell-based
Experimental: (§1) The powder was diluted with DMSO to different concentrations. Subsequently, after being co-cultured with pathogenic streptococcus for different time periods, it was confirmed whether the antimicrobial peptides were the antimicrobial peptide of GM-080 capable of inhibiting Streptococcus pyogenes NZ131 by OD6oonm or in a dish coating manner simultaneously.

[2] = system: Streptococcus pyogenes NZ131; experiment: Antimicrobial peptide co-culture, viable bacteria in a dish coating manner; type: cell-based; details: 1-200 mg/mL
Experimental: as §1

| Sequence | inhibition of Streptococcus pyogenes in a co-culture manner ([1]; 10-200 mg/mL, from 2-3 hours of co-culture, FIG. 8A) | inhibition of growth of Streptococcus pyogenes in a dish coating manner (viable bacteria) ([2]; co-cultured for 2 or 5 hours, FIG. 9A) | inhibition of growth of Streptococcus pyogenes in a co-culture manner ([1]; 1-200 mg/mL, FIG. 8B) | inhibition of growth of Streptococcus pyogenes in a dish coating manner ([2]; FIG. 9B) |
| --- | --- | --- | --- | --- |
| MELLNEKELAHVIGGKRKCPKTPFDNTPGAWFAHLILGC (GM-080; listed as Lactobacillus paracasei) [AMP-01026, antimicrobial peptide of Lactobacillus paracasei GM-080, synthesized] | good inhibition effect | significantly inhibit the growth | – | – |
| MKQFDEQKMVNMSDEELLEFIGGDSIRDVSPTFNKIRRWFDGLFK (GM-080; listed as Lactobacillus paracasei) [AMP-01240, second predicted antimicrobial peptide segment of GM-080, synthesized] | – | – | not capable of inhibiting the growth | not capable of inhibiting the growth |
